Tests used:
[1] = target: T1, CDK9/CycT1 (Homo sapiens, UniProt P50750); test: CDK9/CycT1 high ATP kinase assay (TR-FRET, 2 mM ATP); type: biochemical; conditions: 2 mM ATP (high ATP); median; read-out: CDK9/CyclinT1, 2 mM ATP (high ATP), IC50 (median)
T1 construct: Recombinant full-length His-tagged human CDK9 and CycT1; purchased Life Technologies PV4131; host or cells: insect cells
Procedure, shortened: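 Full-length His-tagged human CDK9/CycT1 (insect cell, ~0.5 μg/mL) preincubated 15 min at 22 °C with compound in Tris pH 8.0, MgCl2, DTT buffer before reaction with biotinylated peptide substrate at high ATP (2 mM).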

[2] = system: BRCA1 mRNA expression in MDA-MB-231 cells; test: qRT-PCR assay: BRCA1 mRNA expression in MDA-MB-231; type: cell-based, human; conditions: Homo sapiens, MDA-MB-231, Inhibition of BRCA1 mRNA expression in MDA-MB-231 cells; median; read-out: RTqPCR-MDA-MB-231, IC50, BRCA1 (median)
Procedure, shortened: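 Cells were seeded at 200,000 cells/well, left 24 h, then exposed continuously to test substances for 24 h. Total RNA (600 ng) was reverse-transcribed to cDNA and amplified by qPCR, and transcript levels were normalised to GAPDH housekeeping expression.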

T1 sequence (P50750 whole entry): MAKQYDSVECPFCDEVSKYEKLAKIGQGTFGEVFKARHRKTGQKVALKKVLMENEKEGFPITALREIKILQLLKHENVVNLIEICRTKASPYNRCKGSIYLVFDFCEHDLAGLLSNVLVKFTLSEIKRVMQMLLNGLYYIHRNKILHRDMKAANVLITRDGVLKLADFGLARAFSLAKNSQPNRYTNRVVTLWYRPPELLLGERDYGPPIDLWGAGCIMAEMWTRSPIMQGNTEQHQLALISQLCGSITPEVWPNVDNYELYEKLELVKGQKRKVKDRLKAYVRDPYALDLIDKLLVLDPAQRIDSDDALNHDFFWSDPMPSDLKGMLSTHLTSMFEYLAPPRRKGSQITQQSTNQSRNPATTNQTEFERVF
T1 sequence (O60563 whole entry partner): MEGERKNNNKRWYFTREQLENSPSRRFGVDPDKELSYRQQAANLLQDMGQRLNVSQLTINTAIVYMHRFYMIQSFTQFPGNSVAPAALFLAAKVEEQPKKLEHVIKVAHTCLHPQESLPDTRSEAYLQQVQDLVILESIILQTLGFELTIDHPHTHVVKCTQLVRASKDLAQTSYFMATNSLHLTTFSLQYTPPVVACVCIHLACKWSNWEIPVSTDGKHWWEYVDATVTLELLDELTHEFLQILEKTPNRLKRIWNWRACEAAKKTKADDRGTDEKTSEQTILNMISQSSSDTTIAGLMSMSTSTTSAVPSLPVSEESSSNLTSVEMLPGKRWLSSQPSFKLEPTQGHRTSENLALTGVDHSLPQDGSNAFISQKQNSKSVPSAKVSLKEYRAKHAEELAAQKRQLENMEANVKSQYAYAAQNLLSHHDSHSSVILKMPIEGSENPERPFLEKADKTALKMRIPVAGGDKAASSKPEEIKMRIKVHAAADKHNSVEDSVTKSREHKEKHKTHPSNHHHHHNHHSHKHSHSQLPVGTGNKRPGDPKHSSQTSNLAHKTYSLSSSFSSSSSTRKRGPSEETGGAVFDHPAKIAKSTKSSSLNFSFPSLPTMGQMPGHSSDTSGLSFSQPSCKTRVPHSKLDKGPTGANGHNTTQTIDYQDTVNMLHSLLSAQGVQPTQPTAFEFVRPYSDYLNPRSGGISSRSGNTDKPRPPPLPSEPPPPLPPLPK

Row | Structure (SMILES) | IC50 [1] [µM] | IC50 [2] [µM]
1 | CC(C)c1cnn2c(NCc3nc4ccccc4[nH]3)nc(N3CCOCC3)nc12 [Example 1, N-[(1H-benzimidazol-2-yl)methyl]-2-(morpholin-4-yl)-8-(propan-2-yl)pyrazolo[1,5-a][1,3,5]triazin-4-amine] | > 20 | 0.0166
2 | CC(C)c1cnn2c(NCc3nc4ccccc4[nH]3)nc(N3CCN(C)CC3)nc12 [Example 2, N-[(1H-benzimidazol-2-yl)methyl]-2-(4-methylpiperazin-1-yl)-8-(propan-2-yl)pyrazolo[1,5-a][1,3,5]triazin-4-amine] | > 20 | 0.0208
3 | CC(C)c1cnn2c(NCc3nc4ccccc4[nH]3)nc(N(C)C)nc12 [Example 3, N^4-[(1H-benzimidazol-2-yl)methyl]-N^2,N^2-dimethyl-8-(propan-2-yl)pyrazolo[1,5-a][1,3,5]triazine-2,4-diamine] | > 20 | 
4 | CC(C)c1cnn2c(NCc3nc4ccccc4[nH]3)nc(N3CCOC(C)(C)C3)nc12 [Example 12, N-[(1H-benzimidazol-2-yl)methyl]-2-(2,2-dimethylmorpholin-4-yl)-8-(propan-2-yl)pyrazolo[1,5-a][1,3,5]triazin-4-amine] | > 20 | 0.117
5 | COC1CCN(c2nc(NCc3nc4ccccc4[nH]3)n3ncc(Br)c3n2)CC1 [Example 62, N-[(1H-benzimidazol-2-yl)methyl]-8-bromo-2-(4-methoxypiperidin-1-yl)pyrazolo[1,5-a][1,3,5]triazin-4-amine] | > 20 | 0.0377
6 | COC(=O)C1CCN(c2nc(NCc3nc4ccccc4[nH]3)n3ncc(Br)c3n2)CC1 [Example 63, methyl 1-(4-{[(1H-benzimidazol-2-yl)methyl]amino}-8-bromopyrazolo[1,5-a][1,3,5]triazin-2-yl)piperidine-4-carboxylate] | > 20 | 0.341
7 | Brc1cnn2c(NCc3nnc(-c4ccccc4)[nH]3)nc(N3CCCC3)nc12 [Example 64, 8-bromo-N-[(5-phenyl-4H-1,2,4-triazol-3-yl)methyl]-2-(pyrrolidin-1-yl)pyrazolo[1,5-a][1,3,5]triazin-4-amine] | 3.56 | 0.0279
8 | Brc1cnn2c(NCc3nnc(-c4ccccc4)[nH]3)nc(N3CC4(COC4)C3)nc12 [Example 65, 8-bromo-2-(2-oxa-6-azaspiro[3.3]heptan-6-yl)-N-[(5-phenyl-4H-1,2,4-triazol-3-yl)methyl]pyrazolo[1,5-a][1,3,5]triazin-4-amine] | > 5.71 | 0.0144
9 | Fc1ccc(-c2cnc(CNc3nc(N4CCOCC4)nc4c(Br)cnn34)[nH]2)cc1 [Example 66, 8-bromo-N-{[5-(4-fluorophenyl)-1H-imidazol-2-yl]methyl}-2-(morpholin-4-yl)pyrazolo[1,5-a][1,3,5]triazin-4-amine] | 4.48 | 0.624
10 | Clc1ccccc1-c1nnc(CNc2nc(N3CCOCC3)nc3c(Br)cnn23)[nH]1 [Example 69, 8-bromo-N-{[5-(2-chlorophenyl)-4H-1,2,4-triazol-3-yl]methyl}-2-(morpholin-4-yl)pyrazolo[1,5-a][1,3,5]triazin-4-amine] | 8.35 | 
11 | FC(F)(F)Oc1ccccc1-c1nnc(CNc2nc(N3CCOCC3)nc3c(Br)cnn23)[nH]1 [Example 74, 8-bromo-2-(morpholin-4-yl)-N-({5-[2-(trifluoromethoxy)phenyl]-4H-1,2,4-triazol-3-yl}methyl)pyrazolo[1,5-a][1,3,5]triazin-4-amine] | > 20 | 
12 | Fc1ccccc1-c1nnc(CNc2nc(N3CCOCC3)nc3c(Br)cnn23)[nH]1 [Example 75, 8-bromo-N-{[5-(2-fluorophenyl)-4H-1,2,4-triazol-3-yl]methyl}-2-(morpholin-4-yl)pyrazolo[1,5-a][1,3,5]triazin-4-amine] | > 6.15 | 
13 | COC1CCN(c2nc(NCc3nnc(-c4ccccc4)[nH]3)n3ncc(Br)c3n2)CC1 [Example 76, 8-bromo-2-(4-methoxypiperidin-1-yl)-N-[(5-phenyl-4H-1,2,4-triazol-3-yl)methyl]pyrazolo[1,5-a][1,3,5]triazin-4-amine] | 7.85 | 
14 | COC(=O)C1CCN(c2nc(NCc3nnc(-c4ccccc4)[nH]3)n3ncc(Br)c3n2)CC1 [Example 77, methyl 1-(8-bromo-4-{[(5-phenyl-4H-1,2,4-triazol-3-yl)methyl]amino}pyrazolo[1,5-a][1,3,5]triazin-2-yl)piperidine-4-carboxylate] | 12.9 | 
15 | C[C@@H]1CN(c2nc(NCc3nnc(-c4ccccc4)[nH]3)n3ncc(Br)c3n2)C[C@H](C)O1 [Example 78, 8-bromo-2-[(2R,6S)-2,6-dimethylmorpholin-4-yl]-N-[(5-phenyl-4H-1,2,4-triazol-3-yl)methyl]pyrazolo[1,5-a][1,3,5]triazin-4-amine] | 0.768 | 

The remaining lines, values ahead:

Row | IC50 [1] [µM] | IC50 [2] [µM] | Structure (SMILES)
16 | 2.53 |  | Fc1cccc(-c2cnc(CNc3nc(N4CCOCC4)nc4c(Br)cnn34)[nH]2)c1 [Example 79, 8-bromo-N-{[5-(3-fluorophenyl)-1H-imidazol-2-yl]methyl}-2-(morpholin-4-yl)pyrazolo[1,5-a][1,3,5]triazin-4-amine]
17 | 5.39 |  | Clc1cccc(-c2cnc(CNc3nc(N4CCOCC4)nc4c(Br)cnn34)[nH]2)c1 [Example 81, 8-bromo-N-{[5-(3-chlorophenyl)-1H-imidazol-2-yl]methyl}-2-(morpholin-4-yl)pyrazolo[1,5-a][1,3,5]triazin-4-amine]
18 | 12.6 |  | FC(F)(F)Oc1cccc(-c2cnc(CNc3nc(N4CCOCC4)nc4c(Br)cnn34)[nH]2)c1 [Example 82, 8-bromo-2-(morpholin-4-yl)-N-({5-[3-(trifluoromethoxy)phenyl]-1H-imidazol-2-yl}methyl)pyrazolo[1,5-a][1,3,5]triazin-4-amine]
19 | 6.79 |  | FC(F)(F)c1cccc(-c2cnc(CNc3nc(N4CCOCC4)nc4c(Br)cnn34)[nH]2)c1 [Example 83, 8-bromo-2-(morpholin-4-yl)-N-({5-[3-(trifluoromethyl)phenyl]-1H-imidazol-2-yl}methyl)pyrazolo[1,5-a][1,3,5]triazin-4-amine]
20 | 6.42 |  | FC(F)(F)c1ccccc1-c1cnc(CNc2nc(N3CCOCC3)nc3c(Br)cnn23)[nH]1 [Example 88, 8-bromo-2-(morpholin-4-yl)-N-({5-[2-(trifluoromethyl)phenyl]-1H-imidazol-2-yl}methyl)pyrazolo[1,5-a][1,3,5]triazin-4-amine]
21 | > 20 |  | FC(F)(F)Oc1ccccc1-c1cnc(CNc2nc(N3CCOCC3)nc3c(Br)cnn23)[nH]1 [Example 89, 8-bromo-2-(morpholin-4-yl)-N-({5-[2-(trifluoromethoxy)phenyl]-1H-imidazol-2-yl}methyl)pyrazolo[1,5-a][1,3,5]triazin-4-amine]
22 | 8.59 |  | c1ccc(-c2nnc(CNc3nc(N4CCOCC4)nc4c(C5CC5)cnn34)[nH]2)cc1 [Example 93, 8-cyclopropyl-2-(morpholin-4-yl)-N-[(5-phenyl-4H-1,2,4-triazol-3-yl)methyl]pyrazolo[1,5-a][1,3,5]triazin-4-amine]
23 | > 20 |  | O[C@@H]1CCN(c2nc(NCc3nc4ccccc4[nH]3)n3ncc(Br)c3n2)C1 [Example 202, (3R)-1-(4-{[(1H-benzimidazol-2-yl)methyl]amino}-8-bromopyrazolo[1,5-a][1,3,5]triazin-2-yl)pyrrolidin-3-ol]
